In brackets after ≈: the same amount, converted by molar mass.
Legend:
[1] = Solubility of clonazepam in neat solvents; settings: neat PEG 300
Protocol: The solubility of clonazepam in a number of neat solvents was determined using standard methods.

[2] = Solubilities of clonazepam in glycol ethers at 3 temperatures
Protocol: The vials were then centrifuged at −5° C. and 5° C. for the −15° C. and 5° C. samples, respectively, at 5000 rpm for 2 minutes.

[3] = Solubilities of clonazepam in solvent/water solutions (glycol ether + pH6.8 buffered water, 25° C.); assay type: physicochemical; settings: Di (ethyleneglycol) diethyl ether, 20% solvent / 80% pH6.8 buffered water
Protocol: The vials were stored at 25° C. for approximately 1 day. Prior to sampling, the vials were centrifuged at 5000 rpm for 2 minutes at 23° C. The results are shown below; neat solvent solubilities from Example 11 are included for reference. Increased water content decreases solubility substantially.

[4] = Human pharmacokinetic, safety and tolerability study (oral, intravenous, intranasal cross-over)
Protocol: The human pharmacokinetics, safety, and tolerability of the clonazepam compositions of the present invention formulated for intranasal delivery for therapeutic applications are evaluated using standard clinical procedures. Clonazepam compositions formulated for intranasal delivery are provided, for example, for application by the participants to intranasal mucosa.
A primary objective of initial studies in humans is to determine and compare pharmacokinetic profiles of three dosage forms of clonazepam: oral, i.v., and intranasal, following single administration. An example of such a study in humans is a cross-over study performed in 12 healthy male volunteers. Plasma and urine level of clonazepam and 7-amino-clonazepam are determined, for example, using HPLC and UV detection. […] Further the initial studies in humans are used to determine local tolerability of intranasal formulation using questionnaire and the Visual Analog Scale (VAS). VAS is a validated instrument that has been used in numerous studies to quantify subjective opening of the nasal passages. In addition, cognitive, sleepiness and mood effects are evaluated using questionnaires and scales (see, e.g., Example 10 below). Further, attention and vigilance may be evaluated using, for example, LEEDS Psychomotor Multiple Choice Reaction Time (MCRT) testing.
A human pharmacokinetic study was carried out as described in Example 8.
15 young, healthy male volunteers received a single dose of 1 mg clonazepam by oral, intravenous and intranasal routes in a three-period cross-over design.

[5] = Psychomotor, subjective and cognitive tests; assay type: in vivo; settings: human
Source text: D. Neurocognative Tests: The Cognitive Drug Research (CDR) computerized assessment system is specifically designed to evaluate the effects of compounds on the quality of cognitive functioning in subjects and patients in all phases of clinical development. The CDR system is a widely used computerized cognitive assessment system (see, for example, Ebert U, et al., “Pharmacokinetics and pharmacodynamics of scopolamine after subcutaneous administration,” Journal of Clinical Pharmacology 38: 720-726 (1998); Harrington F, et al., “Cognitive Performance in Hypertensive and Normotensive Older Subjects,” Hypertension 36: 1079-1082 (2000); Preece A W, et al., “Effect of a 915-MHz simulated mobile phone signal on cognitive function in man,” International Journal of Radiation Biology 75: 447-456 (1999); and Walker M P, et al., “Quantifying fluctuation in Dementia with Lewy Bodies, Alzheimer's disease and vascular dementia,” Neurology 54: 1616-1625 (2000)) and has been used to evaluate a diverse range of pharmaceutical compounds.
This example describes the pharmacodynamic effects of clonazepam compositions formulated for intranasal administration using neurocognitive tests. A selection of tests from a computerized assessment system of Cognitive Drug Research (“CDR,” Reading, United Kingdom) is employed. The study is typically a double-blind, randomized, placebo-controlled cross-over design. As a control, the group may receive clonazepam intravenous (i.v.) and placebo at selected dosages.
Cognitive function is typically assessed using an attentional task battery to assess attention and a word recognition task to assess secondary memory. […]
Tests may be administered, for example, in the following order: Word Presentation; Simple Reaction Time; Digit Vigilance; Choice Reaction Time; and Word Recognition. […] Summary statistics (m, number; mean; sem, standard error; sd, standard deviation; median; min, minimum; max, maximum; and missing) are typically calculated for each measure at each time point by dose. […]

[6] = oral; cited from earlier work

O=C1CN=C(c2ccccc2Cl)c2cc([N+](=O)[O-])ccc2N1 [Clonazepam, 5-(2-chlorophenyl)-1,3-dihydro-7-nitro-2H-1,4-benzodiazepin-2-one]
Solubility [1]: 37.0 mg/mL (≈ 117 mM)
Solubility ([2]; in 1,2-dimethyxoethane, 5 C.): 35.7 mg/mL (≈ 113 mM)
Solubility ([2]; in 1,2-dimethyxoethane, −15 C.): 35.2 mg/mL (≈ 111 mM)
Solubility ([2]; in Di (ethylene glycol) methyl ether, 5 C.): 53.9 mg/mL (≈ 171 mM)
Solubility ([2]; in Di (ethylene glycol) methyl ether, −15 C.): 58.1 mg/mL (≈ 184 mM)
Solubility ([2]; in Di (ethyleneglycol) diethyl ether, 5 C.): 18.5 mg/mL (≈ 58.6 mM)
Solubility ([2]; in Di (ethyleneglycol) diethyl ether, −15 C.): 19.5 mg/mL (≈ 61.8 mM)
Solubility ([2]; in Diethylene glycol monoethyl ether, 5 C.): 37.7 mg/mL (≈ 119 mM)
Solubility ([2]; in Diethylene glycol monoethyl ether, −15 C.): 43.3 mg/mL (≈ 137 mM)
Solubilities (mg/mL) of Clonazepam in Solvent/Water Solutions [3]: 0.31 mg/mL
Cmax of the intranasal route as % of that of the intravenous route ([4]; 1 mg): 17%
Cmax of the intranasal route as % of that of the oral route ([4]; 1 mg): 93%
median Tmax ([4]; 1 mg single dose, intravenous, 15 volunteers): 6 min
mean Cmax (mean ±SD) ([4]; 1 mg, intranasal route): 7.12 ± 3.81 ng/mL
mean Cmax (mean ±SD) ([4]; 1 mg, intravenous route): 42.5±10.8
mean Cmax (mean ±SD) ([4]; 1 mg, oral route): 7.64 ± 1.74 ng/mL
subjects reporting somnolence ([4]; after intranasal dosing, 10 of 15): approximately 67%
subjects reporting nasal discomfort ([4]; after intranasal dosing, 12 of 15): approximately 80%
subjects reporting sedation ([4]; after intravenous dosing): 3/15
subjects reporting somnolence ([4]; after intravenous dosing): 11/15
subjects reporting somnolence or sedation ([4]; after intravenous dosing): Approximately 93%
subjects reporting somnolence ([4]; after oral dosing, 13 of 15): approximately 87%
time at which effects were first apparent (Leeds Psychomotor Test, Bond and Lader VAS, Karolinska Sleepiness Scale) ([5]; intranasal administration): approximately 30 minutes
time at which effects were first apparent (Leeds Psychomotor Test, Bond and Lader VAS, Karolinska Sleepiness Scale) ([5]; intravenous administration): approximately 30 minutes
time at which effects were first apparent (Leeds Psychomotor Test, Bond and Lader VAS, Karolinska Sleepiness Scale) ([5]; oral administration): approximately 2 hours
time of maximum blood concentrations [6]: one to two
